From patent US7629358B2, “Compounds useful for the treatment of diseases” (Pfizer Inc, priority 2004, dated 2009)

Target: T1, human β2 adrenergic receptor (Homo sapiens, UniProt P07550)
T1 construct: expressed in transfected cells; host or cells: CHO (Chinese Hamster Ovary) cells, CHOhβ2
Test: cAMP Flashplate assay in CHO cells recombinantly expressing the human β2 adrenergic receptor
Format: cell-based
Conditions: CHOhβ2 cells, 1 hour incubation, data as % Isoprenaline activity
Protocol: According to another alternative, the agonist potency for the β2 receptor of the compounds of the formula (1) may also be determined by the measure of the concentration of compound according to the present invention required to produce half maximal effect (EC50) for the β2 receptor.
10 mM/100% DMSO (dimethylsulfoxide) stock of compound is diluted to required top dose in 4% DMSO. This top dose is used to construct a 10-point semi-log dilution curve, all in 4% DMSO. Isoprenaline (Sigma, I-5627) was used as a standard in every experiment and for control wells on each plate. Data was expressed as % Isoprenaline response.
CHO (Chinese Hamster Ovary) cells recombinantly expressing the human β2 adrenergic receptor (from Kobilka et al., PNAS 84: 46-50, 1987 and Bouvier et al., Mol Pharmacol 33: 133-139 1988 CHOhβ2) were grown in Dulbeccos MEM/NUT MIX F12 (Gibco, 21331-020) supplemented with 10% foetal bovine serum (Sigma, F4135, Lot 90K8404 Exp 09/04), 2 mM glutamine (Sigma, G7513), 500 μg/ml geneticin (Sigma, G7034) and 10 μg/ml puromycin (Sigma, P8833). Cells were seeded to give about 90% confluency for testing.
25 μl/well each dose of compound was transferred into a cAMP-Flashplate® (NEN, SMP004B), with […] as basal controls and 100 nM Isoprenaline as max controls. This was diluted 1:2 by the addition of 25 μl/well PBS. Cells were trypsinised (0.25% Sigma, T4049), washed with PBS (Gibco, 14040-174) and resuspended in stimulation buffer (NEN, SMP004B) to give 1×10^6 cells/ml CHOhB2. Compounds were incubated with 50 μl/well cells for 1 hour. Cells were then lysed by the addition of 100 μl/well detection buffer (NEN, SMP004B) containing 0.18 μCi/ml ^125I-cAMP (NEN, NEX-130) and plates were incubated at room temperature for a further 2 hours. The amount of ^125I-cAMP bound to the Flashplate® was quantified using a Topcount NXT (Packard), normal counting efficiency for 1 minute. Dose-response data was expressed as % Isoprenaline activity and fitted using a four parameter sigmoid fit.

T1 sequence (P07550 whole entry): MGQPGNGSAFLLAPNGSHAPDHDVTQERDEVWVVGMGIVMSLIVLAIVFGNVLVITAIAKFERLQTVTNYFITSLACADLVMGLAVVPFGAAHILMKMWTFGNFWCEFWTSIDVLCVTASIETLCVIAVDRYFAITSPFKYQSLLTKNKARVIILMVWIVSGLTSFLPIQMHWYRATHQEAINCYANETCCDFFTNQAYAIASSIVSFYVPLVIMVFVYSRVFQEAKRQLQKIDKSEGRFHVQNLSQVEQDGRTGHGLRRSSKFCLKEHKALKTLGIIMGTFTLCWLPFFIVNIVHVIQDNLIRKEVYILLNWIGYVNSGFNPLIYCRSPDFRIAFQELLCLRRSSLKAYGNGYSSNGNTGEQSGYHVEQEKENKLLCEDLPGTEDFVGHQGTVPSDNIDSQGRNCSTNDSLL

| SMILES | EC50 |
| --- | --- |
| C[C@H](Cc1cccc(CC(=O)NC2CCCCCC2)c1)NC[C@H](O)c1ccc(O)c(CO)c1 [Example 1, N-cycloheptyl-2-{3-[(2R)-2-({(2R)-2-hydroxy-2-[4-hydroxy-3-(hydroxymethyl)phenyl]ethyl}amino)propyl]phenyl}acetamide] | 0.143 nM |
| C[C@H](Cc1cccc(CC(=O)NCC23CC4CC(CC(C4)C2)C3)c1)NC[C@H](O)c1ccc(O)c(CO)c1 [Example 14, N-(1-adamantylmethyl)-2-{3-[(2R)-2-({(2R)-2-hydroxy-2-[4-hydroxy-3-(hydroxymethyl)phenyl]ethyl}amino)propyl]phenyl}acetamide] | 0.064 nM |
| C[C@H](Cc1cccc(CC(=O)N(C)CCC2CCCCC2)c1)NC[C@H](O)c1ccc(O)c(CO)c1 [Example 16, N-(2-cyclohexylethyl)-2-{3-[(2R)-2-({(2R)-2-hydroxy-2-[4-hydroxy-3-(hydroxymethyl)phenyl]ethyl}amino)propyl]phenyl}-N-methylacetamide] | 0.874 nM |
| O=C(Cc1cccc(CCNC[C@H](O)c2ccc(O)c(CO)c2)c1)NCCc1ccccc1 [Example 46, 2-{3-[2-({(2R)-2-hydroxy-2-[4-hydroxy-3-(hydroxymethyl)phenyl]ethyl}amino)ethyl]phenyl}-N-(2-phenylethyl)acetamide] | 0.838 nM |
| C[C@H](Cc1cccc(C(=O)NCc2ccc(S(N)(=O)=O)cc2)c1)NC[C@H](O)c1ccc(O)c(CO)c1 [Example 62, N-[4-(aminosulfonyl)benzyl]-3-[(2R)-2-({(2R)-2-hydroxy-2-[4-hydroxy-3-(hydroxymethyl)phenyl]ethyl}amino)propyl]benzamide] | 0.444 nM |

The next lines start with the values.

| EC50 | SMILES |
| --- | --- |
| 0.08 nM | CC(C)(Cc1cccc(CC(=O)N2CCc3ccccc3C2)c1)NC[C@H](O)c1ccc(O)c(CO)c1 [Example 23, 4{(1R)-2-[(2-{3-[2-(3,4-dihydroisoquinolin-2(1H)-yl)-2-oxoethyl]phenyl}-1,1-dimethylethyl)amino]-1-hydroxyethyl}-2-(hydroxymethyl)phenol] |
| 0.15 nM | CC(C)(Cc1cccc(CC(=O)NCc2cc(C(F)(F)F)ccc2F)c1)NC[C@H](O)c1ccc(O)c(CO)c1 [Example 24, N-[2-fluoro-5-(trifluoromethyl)benzyl]-2-{3-[2-({(2R)-2-hydroxy-2-[4-hydroxy-3-(hydroxymethyl)phenyl]ethyl}amino)-2-methylpropyl]phenyl}acetamide] |
| 0.075 nM | CC(C)(Cc1cccc(C(=O)NCCc2cccc(F)c2)c1)NC[C@H](O)c1ccc(O)c(CO)c1 [Example 63, N-[2-(3-Fluorophenyl)ethyl]-3-[2-({(2R)-2-hydroxy-2-[4-hydroxy-3-(hydroxymethyl)phenyl]ethyl}amino)-2-methylpropyl]benzamide] |
| 1.16 nM | CC(C)(Cc1cccc(C(=O)NCC2Cc3ccccc3C2)c1)NC[C@H](O)c1ccc(O)c(CO)c1 [Example 66] |
| 0.434 nM | Cc1cccc(CCNC(=O)c2cccc(CC(C)(C)NC[C@H](O)c3ccc(O)c(CO)c3)c2)n1 [Example 88] |
| 0.1 nM | CC(C)(Cc1cccc(C(=O)NCCc2ccccc2C(F)(F)F)c1)NC[C@H](O)c1ccc(O)c(CO)c1 [Example 102] |
| 0.134 nM | CC(C)(Cc1cccc(C(=O)NCCC23CC4CC(CC(C4)C2)C3)c1)NC[C@H](O)c1ccc(O)c(CO)c1 [Example 114] |

System: not given
Test: not given
Conditions: not given

| melting point | SMILES |
| --- | --- |
| 139 to 140 °C | CC(C)(Cc1cccc(C(=O)NCCc2ccc(Cl)cc2)c1)NC[C@H](O)c1ccc(O)c(CO)c1 [Example 33, N-[2-(4-chlorophenyl)ethyl]-3-{2-[(2R)-2-hydroxy-2-(4-hydroxy-3-hydroxymethyl-phenyl)ethylamino]-2-methylpropyl}benzamide] |
